The values below come from patent US5104884A, “Triazolyl quinoline derivatives” (Alkaloida Vegyeszeti Gyar, priority 1985, dated 1992).

Each structure is given as a SMILES string.

The subject of test [1] is Erysiphe graminis f. sp. tritici. In words: antifungal effect on Erysiphe graminis (powdery mildew on wheat plants, glasshouse). The test is classed as in vivo. The note with it: Blumeria graminis; for inhibition at 50 µg/mL: 50 μg/ml; for inhibition at 100 µg/mL: 100 μg/ml; for inhibition at 150 µg/mL: 150 μg/ml; for inhibition at 200 µg/mL: 200 μg/ml; for inhibition at 400 µg/mL: 400 μg/ml; for inhibition at 25 µg/mL: 25 μg/ml. How it is done:
The compounds of the general Formula (I) are particularly effective against powdery mildew. In Table IV the activity of some compounds of the general […] against Erysiphe graminis f. sp. tritici strain are disclosed.
The following test method is used: Glasshouse conditions: temperature 20° C.; relative humidity 80%; strength of illumination 6000 lux. The test plants MV-9 Automn wheat are cultivated in pots diameter 20 cm in a 1:1 mixture of sand and perlite. The average number of plants per pot amounts to 180, the height of the plants is 6-7 cm. About 8 ml of the aqueous suspension of the test compound is applied onto the plants with the aid of a sprayer.
The rate of infectedness is determined after 8 days. Activity is calculated from the percental inhibition values. As control commercial products Fundazol 50 WP and Karathene LC 50 are used.

Test [2] is described as follows: hot (56° C.) plate test on mice (analgesic effect). It is filed as in vivo, male and female CFLP strain mice. The conditions noted are these: Mus musculus, po, 1 h, read-out: Lengthening of reaction time in %; for change in vivo at 25 mg/kg: 25 mg/kg p.o.; for change in vivo at 50 mg/kg: 50 mg/kg p.o.; for change in vivo at 100 mg/kg: 100 mg/kg p.o. On the procedure: The analgesic effect of the compounds of the present invention is tested according to the hot (56° C.) plate test on male and female CFLP strain mice weighing 18-22 g. The point of time of the appearence of the deterring reaction Abwehrreaktion is determined and related to the latent time measured on the control group Woolfe and McDonald 1944. At least 10 animals are used per dose. […] The test is carried out on separated male Wistar rats weighing 180-210 g and fasted for 16 hours. The test compounds are suspended in 1% carboxy methyl cellulose and administered orally in a dose of 10 ml/kg.

Test [3] can be described thus: adjuvant induced arthritis in rats, method of Newbold. The test is classed as in vivo, male Wistar rats. The conditions noted are these: Rattus norvegicus, po, 504 h, 25 mg/kg p.o. daily for two weeks, read-out: Percental inhibition of the growth of paw volume, on the 21st day. On the procedure:
According to the method of Newbold 0.1 ml of Freund complet adjuvant (Difco Lab. Mich. […] The volume of the hind paws is measured before and 21 days after the administration of the adjuvant with the aid of a mercury plethysmometer. […] In Table II the "percental inhibition of the growth of paw volume" relates to the value determined on the 21st day. […] The tests show furthermore that the compounds of the present invention are active not only in healing morphological deformations but effect in a desirable and useful manner the functional condition and fitness of the feet, moreover the general physical state and condition of the animals, too.

Test [4] can be described thus: carrageenin edema inhibition in rats (antiphlogistic effect), Winter method. It is filed as in vivo, male Wistar rats. The note with it: Rattus norvegicus, po, rats; for inhibition in vivo at 12.5 mg/kg: 12.5 mg/kg p.o.; for inhibition in vivo at 12.5 mg/kg / inhibition in vivo at 25 mg/kg / inhibition in vivo at 100 mg/kg / inhibition in vivo at 50 mg/kg: read-out: Percental inhibition of paw volume; for inhibition in vivo at 25 mg/kg: 25 mg/kg p.o.; for inhibition in vivo at 100 mg/kg: 100 mg/kg p.o.; for ED50: carrageenin edema, p.o., regression analysis, read-out: ED50; for inhibition in vivo at 50 mg/kg: 50 mg/kg p.o. On the procedure:
Thus the orally administered compounds of the general Formula (I) efficiently reduce acute inflammatory processes. According to the method of Winter [Proc. Soc. Exp. Biol. Med. 111, 544 (1962)] carrageenin edema is induced and evaluated on male Wistar rats fasted for 16 hours body weight 160-180 g. Percental inhibition is calculated from the average edema values of the groups treated with the test compound on the one hand and with carrier carboxy methyl cellulose, CMC; control on the other. ED50 values are determined by means of regression analysis of the inhibition values. The test compounds are administered through a stomach canule in the form of a 1% carboxy methyl cellulose (CMC) suspension, one hour before introducing the carrageenin injection.
(Carrageenan injected into the paw causes an acute inflammation.)

The inhibition is the drop in the measured response relative to a control, in per cent. Read a high inhibition as strong suppression. In test [1] (37.5 μg/ml), `Clc1ccc2c(-n3cncn3)ccnc2c1` [Compound 1, 4-(1H-1,2,4-triazole-1-yl)-7-chloro-quinoline] returned an inhibition at 37.5 µg/mL of 50.6%. Further, in test [1], at 50 µg/mL the inhibition was 72.6%, the inhibition at 100 µg/mL was found to be 85.3%, 150 µg/mL produced 36.8% inhibition and the inhibition at 200 µg/mL was 90.1%. Moreover, testing at 400 µg/mL in test [1] gave an inhibition of 99.6%. Besides, at 75 µg/mL the inhibition in test [1] (75 μg/ml) was 83%.

For `Cc1cc(-n2cncn2)c2cccc(C)c2n1` [Compound 6, 4-(1H-1,2,4-triazole-1-yl)-2,8-dimethyl-quinoline], in test [1], the inhibition at 25 µg/mL was 49.2%, the inhibition at 50 µg/mL was determined as 71.6%, the inhibition at 100 µg/mL stood at 85.1% and the inhibition at 200 µg/mL was 89.5%. Also, in test [1], at 400 µg/mL the inhibition was 99.4%.

In test [1], `COc1cccc2c(-n3cncn3)cc(C)nc12` [Compound 8] displayed an inhibition at 25 µg/mL of 42.1%, an inhibition at 50 µg/mL of 70.9%, an inhibition at 100 µg/mL of 82% and an inhibition at 150 µg/mL of 84.1%. Further, in test [1], the inhibition at 200 µg/mL came to 91.9% and 400 µg/mL produced 98.8% inhibition.

In test [1], `Cc1cc(-n2cncn2)c2cccc(Cl)c2n1` [Compound 10] yielded an inhibition at 25 µg/mL of 20.3%, an inhibition at 50 µg/mL of 42.8%, an inhibition at 100 µg/mL of 76.4% and an inhibition at 200 µg/mL of 92.7%. This compound yielded an inhibition at 400 µg/mL in test [1] of 90.1%.

Turning to `Cc1cc(-n2cncn2)c2ccc(Cl)c(Cl)c2n1` [Compound 22], in test [1], 25 µg/mL produced 40.8% inhibition, 50 µg/mL produced 67.7% inhibition, the inhibition at 100 µg/mL is 79.8% and 200 µg/mL produced 93% inhibition. Also, the inhibition at 400 µg/mL in test [1] turned out to be 96.9%.

In the case of `Cc1cc(Sc2nc[nH]n2)c2cccc(Cl)c2n1` [Compound 46], in test [2], the change in vivo at 25 mg/kg was 7%, the change in vivo at 50 mg/kg was determined as 18% and the change in vivo at 100 mg/kg is 38%. In test [3], the inhibition in vivo at 25 mg/kg stood at 28.1%.

Broadly, the ED50 is the dose at which the effect has come halfway, by size or by number of responders. As for `Cc1nc(Sc2ccnc3cc(Cl)ccc23)n[nH]1` [Compound 61], in test [2], the change in vivo at 25 mg/kg was 20%, the change in vivo at 50 mg/kg amounted to 22% and the change in vivo at 100 mg/kg worked out at 26%. Also, the inhibition in vivo at 25 mg/kg in test [3] was determined as 38.2%. In addition, in test [4], the inhibition in vivo at 12.5 mg/kg was 29%, the inhibition in vivo at 25 mg/kg turned out to be 37%, the inhibition in vivo at 100 mg/kg is 58% and the 50% effective dose (ED50) turned out to be 60.9 mg/kg.

As to `Cc1cc(Sc2n[nH]c(C)n2)c2ccccc2n1` [Compound 62], the change in vivo at 12.5 mg/kg in test [2] (12.5 mg/kg p.o.) came out at 17%. In test [2], the change in vivo at 25 mg/kg worked out at 19%, the change in vivo at 50 mg/kg came to 30% and the change in vivo at 100 mg/kg worked out at 38%. Also, the inhibition in vivo at 25 mg/kg in test [3] was 40.3%. In test [4], the inhibition in vivo at 12.5 mg/kg is 18%, the inhibition in vivo at 25 mg/kg amounted to 51%, the inhibition in vivo at 50 mg/kg was 59% and the inhibition in vivo at 100 mg/kg was 69%. Also, in test [4], the ED50 worked out at 38.4 mg/kg.

On to `Cc1cc(Sc2n[nH]c(C)n2)c2cccc(C)c2n1` [Compound 64], for which, in test [2], the change in vivo at 25 mg/kg stood at 17%, the change in vivo at 50 mg/kg is 39% and the change in vivo at 100 mg/kg came to 44%. The inhibition in vivo at 25 mg/kg in test [3] came out at 40.6%. Further, in test [4], the inhibition in vivo at 12.5 mg/kg came to 15%, the inhibition in vivo at 25 mg/kg was 27%, the inhibition in vivo at 50 mg/kg is 44% and the inhibition in vivo at 100 mg/kg amounted to 65%. Further, in test [4], the ED50 is 59.1 mg/kg.

Consider `Cc1cc(Sc2n[nH]c(C)n2)c2cccc(C(F)(F)F)c2n1` [Compound 67], for which the inhibition in vivo at 25 mg/kg in test [3] amounted to 32.8%.

As to `Cc1cc(Sc2n[nH]c(C)n2)c2ccc(Cl)c(C)c2n1` [Compound 69], in test [2], the change in vivo at 25 mg/kg stood at 13%, the change in vivo at 50 mg/kg was determined as 24% and the change in vivo at 100 mg/kg is 30%. For the same compound, the inhibition in vivo at 25 mg/kg in test [3] stood at 35.2%. For the same compound, in test [4], the inhibition in vivo at 12.5 mg/kg was found to be 27%, the inhibition in vivo at 25 mg/kg turned out to be 33%, the inhibition in vivo at 50 mg/kg came out at 52% and the inhibition in vivo at 100 mg/kg came to 86%. Moreover, the ED50 in test [4] is 35 mg/kg.

With `CCc1nc(Sc2cc(C)nc3ccc(C)cc23)n[nH]1` [Compound 74], in test [2], the change in vivo at 25 mg/kg came to 19%, the change in vivo at 50 mg/kg came out at 26% and the change in vivo at 100 mg/kg came to 43%. In addition, in test [4], the inhibition in vivo at 12.5 mg/kg amounted to 26%, the inhibition in vivo at 25 mg/kg was determined as 55%, the inhibition in vivo at 50 mg/kg is 69% and the ED50 is 25.7 mg/kg.

`Cc1cc2ccccc2nc1-n1cncn1` [Compound 83, 2-(1H-1,2,4-triazole-1-yl)-3-methyl-quinoline]: in test [2], the change in vivo at 25 mg/kg turned out to be 16%, the change in vivo at 50 mg/kg came out at 28% and the change in vivo at 100 mg/kg was found to be 59%. Also, in test [3], the inhibition in vivo at 25 mg/kg was determined as 46.7%. In test [4], the inhibition in vivo at 12.5 mg/kg was determined as 21%, the inhibition in vivo at 25 mg/kg was 63%, the inhibition in vivo at 50 mg/kg is 70% and the inhibition in vivo at 100 mg/kg is 72%. The ED50 in test [4] worked out at 28.1 mg/kg.

As to `Cc1ccc2cc(C)c(-n3cncn3)nc2c1` [Compound 85], the inhibition in vivo at 25 mg/kg in test [3] stood at 28.4%.

As to `Cc1cc2ccccc2nc1Sc1nc[nH]n1` [Compound 107], in test [2], the change in vivo at 25 mg/kg came to 34%, the change in vivo at 50 mg/kg is 41% and the change in vivo at 100 mg/kg stood at 88%. The inhibition in vivo at 25 mg/kg in test [3] amounted to 17.8%. In test [4], the inhibition in vivo at 12.5 mg/kg was found to be 29%, the inhibition in vivo at 25 mg/kg is 40%, the inhibition in vivo at 50 mg/kg was 70% and the inhibition in vivo at 100 mg/kg turned out to be 74%. In addition, the ED50 in test [4] worked out at 30.6 mg/kg.

For `Cc1ccc2nc(Sc3nc[nH]n3)c(C)cc2c1` [Compound 108], in test [2], the change in vivo at 25 mg/kg came out at 34%, the change in vivo at 50 mg/kg is 46% and the change in vivo at 100 mg/kg stood at 46%. Besides, the inhibition in vivo at 25 mg/kg in test [3] was 35.2%. Also, in test [4], the inhibition in vivo at 12.5 mg/kg stood at 19%, the inhibition in vivo at 25 mg/kg worked out at 45%, the inhibition in vivo at 50 mg/kg stood at 61% and the inhibition in vivo at 100 mg/kg came out at 70%. The ED50 in test [4] turned out to be 38.5 mg/kg.

In the case of `Cc1ccc2cc(C)c(Sc3nc[nH]n3)nc2c1` [Compound 109], the inhibition in vivo at 25 mg/kg in test [3] is 36.7%.

Take `Cc1cc2cccc(C)c2nc1Sc1nc[nH]n1` [Compound 110]: in test [2], the change in vivo at 25 mg/kg turned out to be 21%, the change in vivo at 50 mg/kg was 34% and the change in vivo at 100 mg/kg came out at 52%. Further, the inhibition in vivo at 25 mg/kg in test [3] was determined as 32.1%. Besides, in test [4], the inhibition in vivo at 12.5 mg/kg is 10%, the inhibition in vivo at 25 mg/kg was 42%, the inhibition in vivo at 50 mg/kg turned out to be 46% and the inhibition in vivo at 100 mg/kg was determined as 61%. Further, in test [4], the ED50 came out at 51.4 mg/kg.

On to `CCc1nc(Sc2nc3ccc(C)cc3cc2C)n[nH]1` [Compound 138], for which, in test [2], the change in vivo at 25 mg/kg stood at 25%, the change in vivo at 50 mg/kg was 37% and the change in vivo at 100 mg/kg was 82%. In addition, the inhibition in vivo at 25 mg/kg in test [3] came to 35.2%.
